Experimental data from patent publication US11130778B2, “CD73 inhibitors” (ORIC Pharmaceuticals, Inc., priority 2019, dated 2021).
pIC50: −log10 of the molar value.

Target: T1, CD73 (Homo sapiens, UniProt P21589)
T1 sequence (P21589 27-549): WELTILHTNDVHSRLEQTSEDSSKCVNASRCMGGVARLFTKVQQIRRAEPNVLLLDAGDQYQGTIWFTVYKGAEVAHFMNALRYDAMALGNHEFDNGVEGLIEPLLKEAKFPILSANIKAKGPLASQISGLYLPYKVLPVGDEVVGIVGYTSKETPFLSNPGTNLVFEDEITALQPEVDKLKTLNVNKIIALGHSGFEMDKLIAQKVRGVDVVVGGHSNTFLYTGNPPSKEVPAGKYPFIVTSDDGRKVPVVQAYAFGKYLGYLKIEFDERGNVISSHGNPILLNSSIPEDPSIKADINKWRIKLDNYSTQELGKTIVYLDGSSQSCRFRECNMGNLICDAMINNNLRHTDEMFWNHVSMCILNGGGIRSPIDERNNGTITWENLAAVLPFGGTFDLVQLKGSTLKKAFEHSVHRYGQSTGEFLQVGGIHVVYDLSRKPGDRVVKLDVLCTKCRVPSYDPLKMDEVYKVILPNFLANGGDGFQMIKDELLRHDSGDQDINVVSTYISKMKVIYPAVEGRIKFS
Test: Biochemical assay of CD73 inhibition (Malachite Green)
Details: CD73 0.3208 nM, AMP 15 μM, Tris-HCl pH 7.4, Malachite Green absorbance readout; read-out: CD73_Biochem
Outline: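 CD73 (0.3208 nM) preincubated with compound 15 min at RT in 25 mM Tris-HCl pH 7.4, 5 mM MgCl2, 0.01% Brij-35, 0.01% BSA, then AMP (15 μM) added for 10 min at RT. Released phosphate detected by Malachite Green absorbance. IC50 from 10-point ½-log titrations starting at 100 μM, in duplicate.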

Compound | pIC50
O=P(O)(O)[C@@](CO)(COCc1nn[nH]n1)OC[C@H]1O[C@@H](n2ncc3c(NC4CCC4)nc(Cl)nc32)[C@H](O)[C@@H]1O [Example 55, ((S)-1-((2H-tetrazol-5-yl)methoxy)-2-(((2R,3S,4R,5R)-5-(6-chloro-4-(cyclobutylamino)-1H-pyrazolo[3,4-d]pyrimidin-1-yl)-3,4-dihydroxytetrahydrofuran-2-yl)methoxy)-3-hydroxypropan-2-yl)phosphonic acid] | ≥ 8.00
[2H]C([2H])([2H])OC[C@](COCc1nn[nH]n1)(OC[C@H]1O[C@@H](n2ncc3c(NC4CCCC4)nc(Cl)nc32)[C@H](O)[C@@H]1O)P(=O)(O)O [Example 59, ((S)-1-((2H-tetrazol-5-yl)methoxy)-2-(((2R,3S,4R,5R)-5-(6-chloro-4-(cyclopentylamino)-1H-pyrazolo[3,4-d]pyrimidin-1-yl)-3,4-dihydroxytetrahydrofuran-2-yl)methoxy)-3-(methoxy-d3)propan-2-yl)phosphonic acid] | ≥ 8.00

The next lines start with the values.

pIC50 | Compound
≥ 8.00 | COCC(COCc1nn[nH]n1)(OC[C@H]1O[C@@H](n2ncc3c(N[C@@H]4CCc5ccccc54)nc(Cl)nc32)[C@H](O)[C@@H]1O)P(=O)(O)O (stereo partly drawn) [Example 56, (1-((2H-tetrazol-5-yl)methoxy)-2-(((2R,3S,4R,5R)-5-(6-chloro-4-(((R)-2,3-dihydro-1H-inden-1-yl)amino)-1H-pyrazolo[3,4-d]pyrimidin-1-yl)-3,4-dihydroxytetrahydrofuran-2-yl)methoxy)-3-methoxypropan-2-yl)phosphonic acid]
7.00 to 8.00 | CC(CS(C)(=O)=O)(OC[C@H]1O[C@@H](n2ncc3c(NC4CCCC4)nc(Cl)nc32)[C@H](O)[C@@H]1O)P(=O)(O)O (stereo partly drawn) [Example 57, (2-(((2R,3S,4R,5R)-5-(6-chloro-4-(cyclopentylamino)-1H-pyrazolo[3,4-d]pyrimidin-1-yl)-3,4-dihydroxytetrahydrofuran-2-yl)methoxy)-1-(methylsulfonyl)propan-2-yl)phosphonic acid]
≥ 8.00 | O=P(O)(O)[C@@](CO)(COCc1nn[nH]n1)OC[C@H]1O[C@@H](n2ncc3c(NCC4CCC4)nc(Cl)nc32)[C@H](O)[C@@H]1O [Example 58, ((S)-1-((2H-tetrazol-5-yl)methoxy)-2-(((2R,3S,4R,5R)-5-(6-chloro-4-((cyclobutylmethyl)amino)-1H-pyrazolo[3,4-d]pyrimidin-1-yl)-3,4-dihydroxytetrahydrofuran-2-yl)methoxy)-3-hydroxypropan-2-yl)phosphonic acid]
≥ 8.00 | O=P(O)(O)C(CO)(COCc1nn[nH]n1)OC[C@H]1O[C@@H](n2ncc3c(N[C@@H]4CCc5ccccc54)nc(Cl)nc32)[C@H](O)[C@@H]1O (stereo partly drawn) [Example 60, (1-((2H-tetrazol-5-yl)methoxy)-2-(((2R,3S,4R,5R)-5-(6-chloro-4-(((R)-2,3-dihydro-1H-inden-1-yl)amino)-1H-pyrazolo[3,4-d]pyrimidin-1-yl)-3,4-dihydroxytetrahydrofuran-2-yl)methoxy)-3-hydroxypropan-2-yl)phosphonic acid]
